Assay [1] has as its system adenosine uptake in HEK293 cells. The assay can be described thus: Adenosine uptake inhibitory activity in HEK293 cells ([3H]adenosine uptake). It is filed as cell-based. Conditions: for activity at 0.05 µM: 50 nmol/L compound, n=2; for activity at 0.5 µM: 500 nmol/L compound. On the procedure: A test was conducted according to the method of Leung et al. [Biochemical Pharmacology, Vol. 70, pp. 355-362 (2005)]. HEK293 cells (ATCC, Registration No. CRL-1537) were subcultured in a Dulbecco's modified Eagle's medium (manufactured by Invitrogen Corporation) containing 10% of fatal calf serum in a CO2 incubator using a poly-L-lysine-coated 10-cm dish (manufactured by Asahi Techno Glass Corporation). The cultured cells were seeded in a poly-L-lysine-coated 24-well plate (manufactured by Asahi Techno Glass Corporation) and cultured until the cells become confluent. […] After incubation at room temperature for 15 minutes, 0.2 mL of a Na^+-free buffer containing 100 nmol/L of [^3H] adenosine (manufactured by GE Health Care Bioscience Corporation) and each compound at each of 50 nmol/L and 500 nmol/L was added to each well. After 1 minute, the reaction solution was removed with an aspirator, and the wells were washed twice with 0.5 mL of ice-cooled PBS (phosphate-buffered saline). Then, 0.5 mL of PBS containing 5% Triton X-100 was added to each well, and the cells were scraped with a scraper. The solution in each well was homogenized by passing through a 20 G injection needle ten times and transferred to a scintillation vial containing 4 mL of clear sol (manufactured by Nacalai Tesque Inc.). Further, the wells were washed with 0.5 mL of PBS containing 5% Triton X-100, and the washing solution was added to the same vial. After sufficient agitation, radioactivity was measured using a liquid scintillation counter (Aloka Co., Ltd., LSC-3500). A relative value to 100% of an uptake of a control was indicated by percentage.

The test system of assay [2] is restraint stress-induced defecation. Description: Action on restraint stress-induced defecation. It is filed as in vivo, male Wistar rats. Conditions: measured 1 hour after stress initiation, rats. On the procedure: An experiment was carried out according to the method of Kishibayashi et al. [Japanese Journal of Pharmacology, Vol. 69, No. 4, pp. 495-502 (1993)]. In the experiment, male Wistar rats aged 6 to 7 weeks (supplied from Charles River Laboratories Japan, Inc.) were used. […] The rats were lightly anesthetized with diethyl ether, and the thoracic trunk and the forelimbs were wrapped with a tape to produce mild stress. One hour after stress initiation, the wet weight of fecal pellets was measured. Each drug solution was orally administered 1 hour before restraint stress. A test compound was suspended at a concentration of 2 mg/mL in an aqueous solution of 0.5 w/v % methyl cellulose 400 cP and orally administered at a volume of 5 mL/kg (at a dose of 10 mg/kg). In a control, an aqueous solution of 0.5 w/v % methyl cellulose 400 cP was administered. Ten rats were used in each group. […] YM060, a serotonin 5-HT3 receptor antagonist [The Journal of Pharmacology and Experimental Therapeutics, Vol. 259, No. 2, pp. 815-819 (1991), Astellas Pharma. Inc., online, internet (URL: […].com/jp/companry/news/2006/pdf/060131.pdf)], which is being applied as a therapeutic agent for irritable bowel syndrome, was administered at a dose of 0.1 mg/kg.

Setting [3] is: Homo sapiens, 1 min, [3H]adenosine uptake relative to 100% of control, HEK293 cells.
Where [4] appears, read: 10 mg/kg p.o. 1 hour before restraint stress, n=10, control of each sub-table 1.06-1.71 g.
[5] abbreviates: 300 mg/kg p.o. 1 hour before restraint stress.

The structures appear in SMILES notation.

In assay [1] (setting [3]), `O=C(CC(O)(C(F)(F)F)C(F)(F)F)Nc1cccc2c1C(=O)c1sccc1CS2(=O)=O` [Compound 1-2] displayed an activity at 0.05 µM of 39% and an activity at 0.5 µM of 17%. The “Wet weight of fecal pellets” value in assay [2] (setting [4]) is reported as 0.78 ± 0.25 g.

In assay [1] (setting [3]), `CCC(O)(CC)C(=O)Nc1cccc2c1C(=O)c1sccc1CS2(=O)=O` [Compound 1-4, 5,5-Dioxo-9-(2-ethyl-2-hydroxybutanoylamino)-4,10-dihydrothieno[3,2-c][1]benzothiepin-10-one] showed an activity at 0.05 µM of 73% and an activity at 0.5 µM of 34%. In addition, the “Wet weight of fecal pellets” value in assay [2] (setting [4]) stood at 0.44 ± 0.19 g.

In assay [1] (setting [3]), `CC(C)(C)C(=O)Nc1cccc2c1C(=O)c1sccc1CS2(=O)=O` [Compound 1-5] displayed an activity at 0.05 µM of 90% and an activity at 0.5 µM of 55%. Moreover, the “Wet weight of fecal pellets” value in assay [2] (setting [4]) was determined as 0.97 ± 0.16 g.

As to `CCOC(=O)Nc1cccc2c1C(=O)c1sccc1CS2(=O)=O` [Compound 1-6], in assay [1] (setting [3]), the activity at 0.05 µM is 89% and the activity at 0.5 µM turned out to be 68%. Also, the “Wet weight of fecal pellets” value in assay [2] (setting [4]) amounted to 0.31 ± 0.06 g.

In assay [1] (setting [3]), `O=C(Nc1cccc2c1C(=O)c1sccc1CS2(=O)=O)c1cc(Cl)ccc1O` [Compound 1-7] showed an activity at 0.05 µM of 74% and an activity at 0.5 µM of 35%. The “Wet weight of fecal pellets” value in assay [2] (setting [4]) is reported as 0.59 ± 0.12 g.

As to `O=C(Nc1cccc2c1C(=O)c1sccc1CS2(=O)=O)c1ccco1` [Compound 1-8], in assay [1] (setting [3]), the activity at 0.05 µM came out at 79% and the activity at 0.5 µM amounted to 44%. In addition, in assay [2] (setting [4]), the “Wet weight of fecal pellets” value is listed as 0.66 ± 0.12 g.

In assay [1] (setting [3]), `Cc1cc(C(=O)Nc2cccc3c2C(=O)c2sccc2CS3(=O)=O)[nH]n1` [Compound 1-9, 5,5-Dioxo-9-[(5-methylpyrazol-3-ylcarbonyl)amino]-4,10-dihydrothieno[3,2-c][1]benzothiepin-10-one] registered an activity at 0.05 µM of 62% and an activity at 0.5 µM of 26%. Further, in assay [2] (setting [4]), the “Wet weight of fecal pellets” value is on record as 0.39 ± 0.18 g.

Consider `CC(=O)C(C)(C)C(=O)Nc1cccc2c1C(=O)c1sccc1CS2(=O)=O` [Compound 1-10, 5,5-Dioxo-9-(2,2-dimethyl-3-oxobutanoylamino)-4,0-dihydrothieno[3,2-c][1]benzothiepin-10-one], for which, in assay [1] (setting [3]), the activity at 0.05 µM was 94% and the activity at 0.5 µM came to 63%.

In assay [1] (setting [3]), `O=C1c2sccc2CS(=O)(=O)c2cccc(NC(=O)C(O)C(F)(F)F)c21` (stereo not shown) [Compound 1-11, 5,5-Dioxo-9-(2-hydroxy-3,3,3-trifluoropropanoylamino)-4,10-dihydrothieno[3,2-c][1]benzothiepin-10-one] yielded an activity at 0.05 µM of 82% and an activity at 0.5 µM of 46%.

In assay [1] (setting [3]), `CC(O)(C(=O)Nc1ccc(F)c2c1C(=O)c1sccc1CS2(=O)=O)C(F)(F)F` (stereo not shown) [Compound 3-1] yielded an activity at 0.05 µM of 96% and an activity at 0.5 µM of 63%. Besides, in assay [2] (setting [4]), the “Wet weight of fecal pellets” value is given as 0.41 ± 0.16 g.

For `CC(O)(C(=O)Nc1ccc(Cl)c2c1C(=O)c1sccc1CS2(=O)=O)C(F)(F)F` (stereo not shown) [Compound 3-2], the “Wet weight of fecal pellets” value in assay [2] (setting [4]) is on record as 0.53 ± 0.14 g.

As to `CC(O)(C(=O)Nc1ccc(Br)c2c1C(=O)c1sccc1CS2(=O)=O)C(F)(F)F` (stereo not shown) [Compound 3-3, 6-Bromo-5,5-dioxo-9-(3,3,3-trifluoro-2-hydroxy-2-methylpropanoylamino)-4,10-dihydrothieno[3,2-c][1]benzothiepin-10-one], the “Wet weight of fecal pellets” value in assay [2] (setting [4]) is given as 0.81 ± 0.22 g.

In assay [1] (setting [3]), `Cc1ccc(NC(=O)C(C)(O)C(F)(F)F)c2c1S(=O)(=O)Cc1ccsc1C2=O` (stereo not shown) [Compound 3-4] gave an activity at 0.05 µM of 71% and an activity at 0.5 µM of 41%. The “Wet weight of fecal pellets” value in assay [2] (setting [4]) came to 0.67 ± 0.19 g.

In assay [1] (setting [3]), `COc1ccccc1CNc1cccc2c1C(=O)c1sccc1CS2(=O)=O` [Compound 5-4, 5,5-Dioxo-9-(2-methoxybenzylamino)-4,10-dihydrothieno[3,2-c][1]benzothiepin-10-one] came in with an activity at 0.05 µM of 72% and an activity at 0.5 µM of 42%.

`CCOC(=O)CNc1cccc2c1C(=O)c1sccc1CS2(=O)=O` [Compound 5-5, 5,5-Dioxo-9-ethoxycarbonylmethylamino-4,10-dihydrothieno[3,2-c][1]benzothiepin-10-one]: in assay [1] (setting [3]), the activity at 0.05 µM turned out to be 98% and the activity at 0.5 µM is 68%.

With `CCOC(=O)C(C)Nc1cccc2c1C(=O)c1sccc1CS2(=O)=O` (stereo not shown) [Compound 5-6, 5,5-Dioxo-9-[1-(ethoxycarbonyl)ethylamino]-4,10-dihydrothieno[3,2-c][1]benzothiepin-10-one], in assay [1] (setting [3]), the activity at 0.05 µM turned out to be 80% and the activity at 0.5 µM was 50%.

On to `COC(=O)C(CC(C)C)Nc1cccc2c1C(=O)c1sccc1CS2(=O)=O` (stereo not shown) [Compound 5-7, 5,5-Dioxo-9-{[1-(methoxycarbonyl)-3-methylbutyl]amino}-4,10-dihydrothieno[3,2-c][1]benzothiepin-10-one], for which, in assay [1] (setting [3]), the activity at 0.05 µM was 67% and the activity at 0.5 µM is 30%.

Take `COC(=O)C(Cc1ccccc1)Nc1cccc2c1C(=O)c1sccc1CS2(=O)=O` (stereo not shown) [Compound 5-8, 5,5-Dioxo-9-{[1-(methoxycarbonyl)-2-phenylethyl]amino}-4,10-dihydrothieno[3,2-c][1]benzothiepin-10-one]: in assay [1] (setting [3]), the activity at 0.05 µM is 92% and the activity at 0.5 µM came out at 69%.

Turning to `O=C1c2sccc2CS(=O)(=O)c2cccc(SCc3ccccc3)c21` [Compound 6-1, 9-Benzylthio-5,5-dioxo-4,10-dihydrothieno[3,2-c][1]benzothiepin-10-one], in assay [1] (setting [3]), the activity at 0.05 µM was 75% and the activity at 0.5 µM was found to be 39%.

For `O=C1c2sccc2CS(=O)(=O)c2cccc(OCc3ccccc3)c21` [Compound 6-2, 9-Benzyloxy-5,5-dioxo-4,10-dihydrothieno[3,2-c][1]benzothiepin-10-one], in assay [1] (setting [3]), the activity at 0.05 µM was 94% and the activity at 0.5 µM was found to be 73%.

With `COc1cc(C(=O)OCCCN2CCCN(CCCOC(=O)c3cc(OC)c(OC)c(OC)c3)CC2)cc(OC)c1OC` [Dilazep, reference compound], the “Wet weight of fecal pellets” value in assay [2] (setting [5]) is listed as 0.84 ± 0.17 g.

As for `OCCN(CCO)c1nc(N2CCCCC2)c2nc(N(CCO)CCO)nc(N3CCCCC3)c2n1` [Dipyridamole, reference compound], the “Wet weight of fecal pellets” value in assay [2] (setting [5]) is recorded as 0.59 ± 0.15 g.

Consider `NC(=O)C1CN(CCCCC(c2ccc(F)cc2)c2ccc(F)cc2)CCN1CC(=O)Nc1c(Cl)cc(N)cc1Cl` (stereo not shown) [Draflazine, reference compound], for which the “Wet weight of fecal pellets” value in assay [2] (100 mg/kg p.o. 1 hour before restraint stress, control 1.06 ± 0.11 g) came out at 0.43 ± 0.13 g.

With `CCOc1cc2nc(N3CCOCC3)nc(N3CCC(n4c(=O)c5cc(C)ccc5n(C)c4=O)CC3)c2cc1OCC` [KF24345, reference compound], the “Wet weight of fecal pellets” value in assay [2] (setting [4]) was 0.48 ± 0.14 g.

As for `O=[N+]([O-])c1ccc(CSc2ncnc3c2ncn3C2OC(CO)C(O)C2O)cc1` (stereo not shown) [Nitrobenzylthioinosine, S6-(4-nitrobenzyl)mercaptopurine riboside, reference compound], the “adenosine uptake in HEK293 cells (in words)” value in assay [1] (100 nmol/L, concentration at which only ENT-1 is inhibited) is given as “almost completely inhibited”. The activity at 0.1 µM in assay [1] (Homo sapiens, 1 min, 100 nmol/L compound, [3H]adenosine uptake relative to 100% of control, HEK293 cells) came out at 8%. The compound further displayed an activity at 0.5 µM in assay [1] (setting [3]) of 4%.

Consider `Cn1cc(C(=O)[C@@H]2CCc3nc[nH]c3C2)c2ccccc21` [YM060, reference compound], for which, in assay [2] (0.1 mg/kg 1 hour before restraint stress, control 1.24 ± 0.23 g), the “Wet weight of fecal pellets” value stood at 0.43 ± 0.11 g.
